Laboratory results as given in US20250281629A1, “COMPOSITIONS AND METHODS FOR ANTI-PHOSPHOCHOLINE ACTIVE IMMUNOTHERAPY” (Duke University, priority 2022, published 2025).
Where no end group is shown, it is not given here. C11H22NO6P = phosphorylcholine group attached via 2-methacryloyloxyethyl phosphorylcholine

Legend:
[1] = test system: non-B1a B cells (CD19+CD5−); test: Nanofiber uptake in i.p. lavage cells, flow cytometry: non-B1a B cells; format: in vivo, mouse; conditions: for non-B1a B cells that acquired nanofibers: 4 hours after i.p. injection of TAMRA-labeled nanofibers
Description: Nanofiber Uptake and Evaluation. The cell types present and their propensity to uptake nanofibers in the i.p. space was tested by injecting mice i.p. with 100 μL of 2 mM TAMRA-labeled fluorescent nanofibers. 4 hours later, mice were euthanized and i.p. lavage was conducted via the injection of 2 mL of cold 1×PBS into the peritoneal cavity and massaging the abdomen for 30 seconds. The solution was then carefully extracted from the i.p. space and the cells were isolated followed by rinsing with ice cold flow buffer (2% heat-inactivated FBS in 1×PBS). The cells present were treated with mouse BD Fc Block (Clone: 2.4G2) (BD Biosciences, 553142) in flow buffer on ice for 30 min and then washed and stained with antibodies against the following markers: CD5-APC (Clone: 53-7.3) (BioLegend, 100626), F4/80-PerCP/Cy5.5 (Clone: BM8) (BioLegend, 123128), CD19-APC/Cy7 (Clone: 6D5) (BioLegend, 115530), CD11c-PE/Cy7 (Clone: N418) (BioLegend, 117318), and CD86-BV605 (Clone: GL1) (BD Biosciences, 2272591) in flow buffer for 30 min on ice. TAMRA-fluorescence as an indication of nanofiber uptake was measured on the PE channel. Cells were then washed in flow buffer and stained with DAPI. Flow cytometry was conducted on a BD FACSCanto II cytometer and the results were analyzed using FlowJo software.

[2] = Thioflavin T (ThT) assay for β-sheets; format: physicochemical; conditions: peak fluorescence intensity around 488 nm
Description: Thioflavin T (ThT) Assay. β-sheets were detected by Thioflavin T (ThT) (Alfa Aesar, J61043) binding and resulting fluorescence. 180 μL of 0.05 mM ThT was added to 20 μL of 2 mM nanofibers in a 96-well black plate and allowed to incubate for 1 min. Fluorescence intensity was then determined using an excitation wavelength of 440 nm and emission wavelengths from 460-600 nm at 5 nm intervals. A peak fluorescence intensity at an emission wavelength around 488 nm is indicative of β-sheets.

[3] = test system: CD4^+ T-cell depleted mice; test: Anti-PC responses in CD4+ T-cell depleted mice; format: in vivo, mouse; conditions: for anti-PC IgM in the absence of CD4+ T cells: anti-CD4 antibody; for main anti-PC IgG subclass in CD4+ T cell-depleted mice: week 3
Description: Detection of Anti-PC Antibody Responses via ELISA. Anti-PC antibody responses in serum collected from the submandibular vein in mice were measured using ELISA. Briefly, plates were coated with 20 μg/mL PC-BSA (Biosearch Technologies, PC-1011-10) in 1×PBS or just 1×PBS at 4° C. overnight. The next day, the plates were washed using 1×PBST (1×PBS with 0.05% Tween 20) and then blocked three times with Superblock blocking buffer solution (Thermo Fisher, 37515). Serum diluted from 1:10^2 to 1:10^5 in 1% BSA in 1×PBST was the added to the plate and allowed to incubate for 2 h at room temperature. Anti-PC IgG was detected using HRP-conjugated Fcγ fragment-specific goat anti-mouse IgG (Jackson Immuno Research, 15-035-071). IgG subclasses and IgM anti-PC antibodies were detected using Southern Biotech HRP-conjugated goat anti-mouse antibodies (IgG1, IgG2b, IgG2c, IgG3, & IgM: 5300-05B). Area under the curve (AUC) measurements were calculated using background-subtracted absorbance values at dilutions from 1:10^2 to 1:10^5. Antibody titers were defined using an absorbance cutoff above background of 0.2 OD, where titer 2 represents an OD value greater than 0.2 at 1:10^2 dilution and so on up to titer 5 at 1:10^5 dilution.
T Cell ELISpot. T-cell responses were measured using ELISpot. Mice were euthanized 6 days after booster immunization and splenocytes were isolated using Lympholyte-M (Cedarlane, c15031). Splenocytes were stimulated with either media (negative control), Concanavalin A (ConA) (Sigma, C5275) (positive control), or PADRE peptide (1 μM) and then plated at 250,000 cells/well on IL-4 and IFN-γ capture antibody-coated 96-well ELISpot plates (Millipore, MSIPS4510). IL-4 (BD, 551878) and IFNγ (BD, 551881) detection antibodies followed by streptavidin-alkaline phosphatase (Mabtech, 3310-0) and Sigmafast BCIP/NBT (Sigma, B5655) were used to develop cell spots. The quantification of cell spots was then outsourced to Zellnet Consulting Services which uses a Zeiss KS ELISPOT reader. ELISpot counts shown represent spot counts after the subtraction of spots in the negative control wells for each sample.
CD4 T cell Depletion. Mice were given 200 μg of either anti-mouse CD4 (InVivoMAb, clone GK1.5, BioXCell, BE0003-1) or isotype control (InVivoMAb rat IgG2b isotype control anti-KLH, clone LTF-2, BioXCell, BE0090) antibodies in 100 μL InVivoPure pH 6.5 dilution buffer (BioXCell, IP0065) via i.p. injection at days −3, −1, 3, 7, 11, 15, and 19. On days 0 and 22, cells from the spleen, draining lymph nodes (axial, brachial, and inguinal), and mesenteric lymph nodes of unimmunized mice were isolated via physical separation using a 70 μm filter in order to verify CD4^+ T-cell depletion (FIGS. 11A-11E, representative flow cytometry shown in FIG. 12). The cells were treated with mouse BD Fc Block (Clone: 2.4G2) (BD Biosciences, 553142) in flow buffer on ice for 30 min and then washed and stained with antibodies against the following markers: CD4-FITC (Clone: GK1.5) (BD Biosciences, 557307), CD45-PE (Clone: 30-F11) (BioLegend, 103106), CD8a-PE-Cy7 (Clone: 53-6.7 (BD Biosciences, 552877), and CD3e-BV605 (Clone: 145-2C11) (BD Biosciences, 563004) in flow buffer for 30 min on ice. Cells were then washed in flow buffer and stained with DAPI. Flow cytometry was conducted on a BD FACSCanto II cytometer and the results were analyzed using FlowJo software. To determine the importance of PADRE T-cell epitope inclusion in immunizations, anti-CD4 or isotype control antibody-administered mice were immunized on days 0 and 14, with anti-PC antibodies measured at days 0, 7, and 22 via ELISA and T-cell responses measured on day 22 via ELISpot.

[4] = i.p. day 0 and 14, with PADRE-Q11 and CpG

| Substance | TAMRA MFI of non-B1a B cells ([1]; 4 hours after i.p. injection) | non-B1a B cells that acquired nanofibers [1] | non-B1a B cells among total TAMRA+ cells ([1]; total TAMRA+ cells categorized by cell type) | thioflavin-T binding (β-sheet fibrillar structure) [2] | total anti-PC IgG production, dependence on CD4+ T cells [3, 4] | anti-PC IgM in the absence of CD4+ T cells [3, 4] | main anti-PC IgG subclass in CD4+ T cell-depleted mice [3] | non-B1a B cells in the peritoneal cavity (total cells) ([1]; compared with PC-Q11, Q11, or PBS alone) | anti-PC IgM, isotype control vs CD4-depleted [3, 4] |
| --- | --- | --- | --- | --- | --- | --- | --- | --- | --- |
| C11H22NO6P-CSGSG-QQKFQFQFEQQ-NH2 (C(C11H22NO6P)SGSGQQKFQFQFEQQ-NH2) [PC-Q11, phosphodiester PC-Q11] | selective uptake | over 80% | acquired primarily by non-B1a B cells | bound thioflavin-T (ThT) | reliant on CD4^+ T cells | generated by both immunizations in the absence of CD4^+ T cells | IgG3 |  |  |
| (C11H22NO6P)n-CCCCSGSG-QQKFQFQFEQQ-NH2 (CCCCSGSGQQKFQFQFEQQ-NH2; not fully specified; cysteine pairing not given here; also: phosphorylcholine groups (C11H22NO6P) n=1-4, attachment not placed) [PCM-Q11, linear multi-PC conjugate] |  | < 30% |  | bound thioflavin-T (ThT) | reliant on CD4^+ T cells | generated by both immunizations in the absence of CD4^+ T cells | IgG3 | reduction in non-B1a B cells | significantly greater for PCM-Q11 immunizations when CD4^+ T cells were present |
